Data from patent US5530128A, “N-sulphonylamino derivatives of dipetide compounds as metalloproteinase inhibitors” (Celltech Therapeutics Limited, priority 1992, dated 1996).

What was measured:
Type in all cases: biochemical
[1] = target: Stromelysin-1 (Homo sapiens, UniProt P08254); assay: Enzyme inhibition assay (fluorimetric, peptide substrate Dnp-Pro-Leu-Gly-Trp-Ala-D-Arg-NH2), stromelysin; details: Ki (app) assumed to approximate to the true Ki; pH 7.5, overnight
Protocol: (§1) The activity and selectivity of the compounds of the invention may be determined as described below. All enzyme assays to determine Ki values were performed using the peptide substrate […]. [M. Sharon Stock and Rober D. Gray, JBC 264, 4277-81, 1989]. The enzymes cleave at the Gly-Leu bond which can be followed fluorimetrically by measuring the increase in Trp fluorescence emission associated with the removal of the quenching dinitrophenol (Dnp) group. […] Brij 35 at either room temperature or 37° C. depending on the enzyme. The reaction is stopped by adjusting the pH to 4 using 0.1M sodium acetate buffer and the fluorescence read at an excitation wavelength of 280 nm and emission wavelength of 346 nm. […] For stromelysin and collagenase, Ki (app) was assumed to approximate to the true Ki as [S]<<Km for the substrate hydrolysis. For gelatinase the Ki was determined by performing the analyses at several substrate concentrations. A plot of Ki (app) vs. [S] then gave the true Ki as the value of the y-axis intercept.

[2] = target: T1, Collagenase (Homo sapiens, UniProt P03956); assay: Enzyme inhibition assay (fluorimetric, peptide substrate Dnp-Pro-Leu-Gly-Trp-Ala-D-Arg-NH2), collagenase; details: Ki (app) assumed to approximate to the true Ki; pH 7.5, overnight
T1 sequence (P03956 100-469): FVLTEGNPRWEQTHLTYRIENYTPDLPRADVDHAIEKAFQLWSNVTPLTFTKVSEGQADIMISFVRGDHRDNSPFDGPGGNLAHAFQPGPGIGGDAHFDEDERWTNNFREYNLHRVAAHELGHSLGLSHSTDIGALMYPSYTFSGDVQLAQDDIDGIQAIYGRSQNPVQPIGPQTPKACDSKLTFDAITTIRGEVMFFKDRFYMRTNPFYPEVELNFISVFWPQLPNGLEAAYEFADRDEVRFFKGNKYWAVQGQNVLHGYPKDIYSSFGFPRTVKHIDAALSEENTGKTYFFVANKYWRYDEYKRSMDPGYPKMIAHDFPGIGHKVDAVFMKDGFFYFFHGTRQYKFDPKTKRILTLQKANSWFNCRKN
Protocol: as §1

[3] = target: T2, Gelatinase 72KD (Homo sapiens, UniProt P08253); assay: Enzyme inhibition assay (fluorimetric, peptide substrate Dnp-Pro-Leu-Gly-Trp-Ala-D-Arg-NH2), gelatinase; details: true Ki from plot of Ki (app) vs. [S]; pH 7.5, overnight
T2 sequence (P08253 110-660): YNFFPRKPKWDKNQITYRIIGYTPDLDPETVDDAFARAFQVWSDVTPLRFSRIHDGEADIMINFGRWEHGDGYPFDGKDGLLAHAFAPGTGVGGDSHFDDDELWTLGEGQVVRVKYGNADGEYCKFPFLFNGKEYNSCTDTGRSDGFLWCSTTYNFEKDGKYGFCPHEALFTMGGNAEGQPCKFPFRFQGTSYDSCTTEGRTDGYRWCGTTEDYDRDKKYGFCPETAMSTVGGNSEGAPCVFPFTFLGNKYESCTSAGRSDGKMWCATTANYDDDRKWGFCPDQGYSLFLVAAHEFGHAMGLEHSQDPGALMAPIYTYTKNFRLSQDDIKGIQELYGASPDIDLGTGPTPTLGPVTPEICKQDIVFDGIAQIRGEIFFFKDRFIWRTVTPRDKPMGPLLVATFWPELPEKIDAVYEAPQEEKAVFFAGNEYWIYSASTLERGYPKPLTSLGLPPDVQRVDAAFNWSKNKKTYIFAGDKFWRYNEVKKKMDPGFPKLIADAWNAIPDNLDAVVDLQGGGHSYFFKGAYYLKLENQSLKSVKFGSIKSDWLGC
Protocol: as §1

Sequence of Stromelysin-1 (P08254 100-477, species assumed): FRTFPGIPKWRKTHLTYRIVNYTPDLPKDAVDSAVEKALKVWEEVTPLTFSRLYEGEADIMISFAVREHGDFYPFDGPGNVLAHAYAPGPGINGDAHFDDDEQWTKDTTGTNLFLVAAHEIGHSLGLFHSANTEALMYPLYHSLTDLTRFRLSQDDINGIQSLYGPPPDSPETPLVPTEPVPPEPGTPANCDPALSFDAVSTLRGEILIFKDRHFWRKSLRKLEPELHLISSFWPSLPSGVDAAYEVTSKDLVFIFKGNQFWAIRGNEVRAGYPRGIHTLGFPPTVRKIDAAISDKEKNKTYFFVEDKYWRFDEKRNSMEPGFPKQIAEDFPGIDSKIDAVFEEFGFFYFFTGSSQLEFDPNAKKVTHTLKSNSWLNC

| Ki [1] [nM] | Ki [2] [nM] | Ki [3] [nM] | SMILES |
| --- | --- | --- | --- |
| 2.75 | 385 |  | Cc1ccc(CCC[C@H](CC(=O)NO)C(=O)N[C@@H](CC2CCCCC2)C(=O)NCCNS(=O)(=O)N2CCOCC2)cc1 [Example 3, {4-(N-Hydroxyamino)-2(R)-[3-(4-methylphenyl)propyl]succinyl}-L-β-cyclohexylalanine-N-[(2-morpholinesulphonylamino)ethyl]amide] |
| 18.7 | 554 | 0.047 | Cc1ccc(CCC[C@H](CC(=O)NO)C(=O)N[C@@H](CC2=CCCCC2)C(=O)NCCNS(=O)(=O)N2CCOCC2)cc1 [Example 5, {4-(N-Hydroxyamino)-2(R)-[3-(4-methylphenyl)propyl]succinyl}-L-β-(1-cyclohexenylalanine)-N-[(2-morpholinesphonylamino)ethyl]amide] |
| 802 | 100000 | 1.43 | Cc1ccc(CCC[C@H](CC(=O)O)C(=O)N[C@@H](CC2CCCCC2)C(=O)NCCNS(=O)(=O)N2CCOCC2)cc1 [Example 2, {4-Hydroxy-2-(R)-[3-(4-methylphenyl)propyl]succinyl}-L-β-cyclohexylalanine-N-[(2-morpholinesulphonylamino)ethyl]amide] |

Continued, compound first:

| SMILES | Ki [1] [nM] | Ki [2] [nM] | Ki [3] [nM] |
| --- | --- | --- | --- |
| Cc1ccc(CCC[C@H](CC(=O)NO)C(=O)N[C@@H](CC2CCCCC2)C(=O)NCCCNS(=O)(=O)N(C)C)cc1 [Example 6] | 6.8 | 800 |  |
| O=C(C[C@@H](CCCc1ccc(Cl)cc1)C(=O)N[C@@H](CC1CCCCC1)C(=O)NCCNS(=O)(=O)N1CCOCC1)NO [Example 4, {4-(N-Hydroxyamino)-2(R)-[3-(4-chlorophenyl)propyl]succinyl}-L-β-cyclohexylalanine-N-[(2-morpholinesulphonylamino)ethyl]amide] | 1.73 | 302 | 0.014 |
